Results taken from patent US20110251379A1, “COMPOUNDS USEFUL FOR TREATING NEURODEGENERATIVE DISORDERS” (Satori Pharmaceuticals, Inc., priority 2010, published 2011).
Where two headings read alike, the source gives them in different places.

Tested on: amyloid-beta (1-42) peptide
Test: ELISA assay of amyloid-beta (1-42) in conditioned media of 2B7 cells
Type: cell-based
Conditions: for IC50: Aβ-42, 2B7 cells, 5 hours, read-out: IC50 range; for inhibition at 10 µM: Aβ-42, 10 umol/L
Procedure, shortened: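 2B7 cells were treated with compounds for 5 hours at 37° C in media with 1% DMSO. Conditioned media, diluted 1:2 in blocking buffer, went into a sandwich ELISA with 6E10 capture and an HRP-labelled detection antibody, read by TMB at 450 nm. Values came from an Aβ peptide standard curve.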

| SMILES | IC50 | other results |
| --- | --- | --- |
| CC(=O)O[C@@H]([C@H]1C[C@@H](C)C2C(O1)[C@H](O)[C@@]1(C)[C@@H]3CC[C@H]4C(C)(C)[C@@H](O[C@H]5CNCCO5)CC[C@@]45C[C@@]35CC[C@]21C)C(C)(C)O (stereo partly shown) | – | IC50 (5 h): ≤ 1 µM |
| CC(=O)N(CC1CC(C)C2C(O1)C(O)C1(C)C3CCC4C(C)(C)C(O)CCC45CC35CCC21C)CC(F)(F)F (stereo not shown) | > 10 µM | – |
| CC(=O)O[C@H]1CC[C@]23C[C@]24CC[C@]2(C)C5C(C[C@@]2(C)[C@@H]4CC[C@H]3C1(C)C)OC(C(F)(F)F)=C[C@H]5C (stereo partly shown) | – | inhibition at 10 µM (read-out: % Inhibition (range)): < 25% |
| CC(=O)O[C@@H]([C@H]1C[C@@H](C)C2C(O1)[C@H](O)[C@@]1(C)[C@@H]3CC[C@H]4C(C)(C)[C@@H](O[C@H]5CN(C)CCO5)CC[C@@]45C[C@@]35CC[C@]21C)C(C)(C)O (stereo partly shown) | – | IC50 (5 h): ≤ 1 µM |
| CC(=O)N(Cc1ccc(F)cc1)CC1CC(C)C2C(O1)C(O)C1(C)C3CCC4C(C)(C)C(O)CCC45CC35CCC21C (stereo not shown) | 1 to 10 µM | – |
| CC1CC(CNS(C)(=O)=O)OC2C1C1(C)CCC34CC35CCC(O)C(C)(C)C5CCC4C1(C)C2O (stereo not shown) | > 10 µM | – |
| CC(=O)N(Cc1cccc(F)c1)CC1CC(C)C2C(O1)C(O)C1(C)C3CCC4C(C)(C)C(O)CCC45CC35CCC21C (stereo not shown) | ≤ 1 µM | – |
| CC(=O)O[C@H]1CC[C@]23C[C@]24CC[C@]2(C)C5C(C[C@@]2(C)C4CCC3C1(C)C)OC(O)(C(F)(F)F)C[C@H]5C (stereo partly shown) | – | inhibition at 10 µM (read-out: % Inhibition (range)): < 25% |
| CC(=O)N(Cc1cccnc1)CC1CC(C)C2C(O1)C(O)C1(C)C3CCC4C(C)(C)C(O)CCC45CC35CCC21C (stereo not shown) | > 10 µM | – |
| C[C@@H]1C[C@H]([C@@H]2OC(=O)OC2(C)C)OC2C(O)[C@@]3(C)[C@@H]4CC[C@H]5C(C)(C)[C@@H](O[C@@H]6OC[C@@H](O)[C@H](O)[C@H]6O)CC[C@@]56C[C@@]46CC[C@]3(C)C21 (stereo partly shown) | – | IC50 (5 h): 1 to 10 µM |
| C[C@@H]1C(I)COC2C[C@H]3[C@@H]4CC=C5C[C@@H](O)CC[C@]5(C)[C@H]4CC[C@]3(C)C21 (stereo partly shown) | – | inhibition at 10 µM (read-out: % Inhibition (range)): < 25% |
| CC1CC(c2nnco2)OC2C1C1(C)CCC34CC35CCC(O)C(C)(C)C5CCC4C1(C)C2O (stereo not shown) | > 10 µM | – |
| CC(=O)N(CC1CC(C)C2C(O1)C(O)C1(C)C3CCC4C(C)(C)C(O)CCC45CC35CCC21C)C1COC1 (stereo not shown) | > 10 µM | – |
| CC(C)NC(=O)N(Cc1ccccc1)CC1CC(C)C2C(O1)C(O)C1(C)C3CCC4C(C)(C)C(O)CCC45CC35CCC21C (stereo not shown) | > 10 µM | – |
| CC(=O)N(Cc1cc(F)cc(F)c1)CC1CC(C)C2C(O1)C(O)C1(C)C3CCC4C(C)(C)C(OC(=O)Cc5cccnc5)CCC45CC35CCC21C (stereo not shown) | > 10 µM | – |
| CC(=O)NCC1CC(C)C2C(O1)C(O)C1(C)C3CCC4C(C)(C)C(O)CCC45CC35CCC21C (stereo not shown) | > 10 µM | – |
| CC(=O)OCC1CC(C)C2C(O1)C(O)C1(C)C3CCC4C(C)(C)C(OC5OCC(O)C(O)C5O)CCC45CC35CCC21C (stereo not shown) [drawing 792] | 1 to 10 µM | – |
| CC(=O)O[C@@H]([C@H]1C[C@@H](C)C2C(O1)[C@H](O)[C@@]1(C)[C@@H]3CC[C@H]4C(C)(C)[C@@H](OC(=O)CCC(=O)O)CC[C@@]45C[C@@]35CC[C@]21C)C(C)(C)O (stereo partly shown) | – | IC50 (5 h): 1 to 10 µM |
| CO[C@@H]([C@H]1C[C@@H](C)C2C(O1)[C@H](O)[C@@]1(C)[C@@H]3CC[C@H]4C(C)(C)[C@@H](O[C@@H]5OC[C@@H](O)[C@H](O)[C@H]5O)CC[C@@]45C[C@@]35CC[C@]21C)C(C)(C)O (stereo partly shown) | – | IC50 (5 h): 1 to 10 µM |
| CC(=O)N(Cc1ccccn1)CC1CC(C)C2C(O1)C(O)C1(C)C3CCC4C(C)(C)C(O)CCC45CC35CCC21C (stereo not shown) [drawing 841] | 1 to 10 µM | – |
| CC(=O)O[C@@H]([C@H]1C[C@@H](C)C2=C(O1)[C@H](O)[C@@]1(C)[C@@H]3CC[C@H]4C(C)(C)[C@@H](O[C@@H]5OC[C@@H](O)[C@H](O)[C@H]5O)CC[C@@]45C[C@@]35CC[C@]21C)C(C)(C)O | – | IC50 (5 h): ≤ 1 µM |
| C[C@@H]1C[C@H](CO)OC2C1[C@@]1(C)CC[C@@]34C[C@@]35CC[C@H](O)C(C)(C)[C@@H]5CC[C@H]4[C@]1(C)[C@H]2O (stereo partly shown) | – | inhibition at 100 µM (Aβ-42, 100 umol/L, read-out: % Inhibition (range)): < 25% |
